Experimental data reported in US7045544B2, “Substituted 2,5-diamidoindoles as ECE inhibitors for the treatment of cardiovascular diseases” (Bayer HealthCare AG, priority 2001, dated 2006).
Where a name gives a salt, the structure may show the parent alone.

Target: T1, endothelin-converting enzyme (ECE) (Homo sapiens, UniProt P42892)
T1 construct: The ECE activity for identifying the substances described herein originates from the endothelial cell line EA.hy926; endogenous in cells; host or cells: EA.hy926 endothelial cells (intact, confluent)
T1 sequence (P42892 1-770): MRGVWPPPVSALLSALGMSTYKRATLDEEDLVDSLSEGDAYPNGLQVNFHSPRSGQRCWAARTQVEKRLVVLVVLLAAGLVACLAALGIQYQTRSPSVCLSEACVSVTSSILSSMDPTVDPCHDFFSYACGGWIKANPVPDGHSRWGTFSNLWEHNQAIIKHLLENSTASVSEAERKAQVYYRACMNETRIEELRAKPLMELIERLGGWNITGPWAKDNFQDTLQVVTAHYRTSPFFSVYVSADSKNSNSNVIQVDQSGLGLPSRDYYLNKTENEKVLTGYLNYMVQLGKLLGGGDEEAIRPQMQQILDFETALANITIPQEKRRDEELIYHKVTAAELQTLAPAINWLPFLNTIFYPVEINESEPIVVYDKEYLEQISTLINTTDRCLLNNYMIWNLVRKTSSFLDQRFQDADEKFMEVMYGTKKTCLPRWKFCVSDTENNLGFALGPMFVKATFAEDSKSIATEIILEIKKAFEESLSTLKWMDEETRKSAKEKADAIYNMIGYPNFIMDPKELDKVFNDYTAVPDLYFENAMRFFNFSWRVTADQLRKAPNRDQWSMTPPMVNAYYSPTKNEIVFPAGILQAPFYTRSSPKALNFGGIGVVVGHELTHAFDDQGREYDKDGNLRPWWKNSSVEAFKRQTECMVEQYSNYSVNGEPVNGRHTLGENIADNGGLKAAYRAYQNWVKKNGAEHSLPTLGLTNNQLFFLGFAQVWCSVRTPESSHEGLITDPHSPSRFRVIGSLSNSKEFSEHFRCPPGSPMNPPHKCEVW
Assay: cell-based
Conditions: ECE activity of endothelial cell line EA.hy926; 1–100 nM bET; 100 μM thiophane added; ET-1 formed measured by EIA
Method: Functional in Vitro Assay
The ECE activity for identifying the substances described herein originates from the endothelial cell line EA.hy926. The ECE-inhibitory action of the compounds in this invention is tested as described below:
For 12–48 h, EA.hy296 cells are cultivated in a 384-well cell culture dish in 80 μl of cell culture medium (DMEM supplemented with 10% FCS, 2 mM glutamine, 10 mM HEPES, 1 mM sodium pyruvate and 1×HAT (Gibco 21060-017)) in a humid atmosphere (100% atmospheric humidity) enriched with 7% v/v of CO2 at 37° C. After confluence has been reached, and immediately prior to the actual beginning of measurement, the supernatant of the cell culture is pipetted off and replaced by 40 or 80 μl of the same medium to which 1–100 nM bET has been added. After 30–120 minutes under otherwise identical cell culture conditions, the supernatant is pipetted off. Cellular components are removed by centrifugation in a customary bench-top centrifuge (10 000 rpm; 2 minutes). The resulting clear supernatant is either used directly as described below or shock-frozen in dry ice and then stored at −20° C. Directly removed supernatant or thawed, stored supernatant are measured in an enzyme immunoassay (EIA).
To determine the inhibitory activity of ECE inhibitors, EA.hy296 cells are incubated with the test substance in a concentration between 0.001–5 μM under the conditions described above. To minimize possible interference by neutral endopeptidase (NEP24.11), 100 μM of thiophane are added during the bET incubation of the EA.hy926 cells.
The proportion of the ET-1 formed by ECE cleavage is measured as follows: depending on the amount of converted bET, the samples are, prior to use, diluted 2–100-fold with EIA. An appropriate dilution of the cell supernatant is incubated in 100 μl portions for 14–18 hours in the sample tubes of the EIA kit Biomedica B1-20052.

Row | Compound | IC50 [nM]
1 | CC(=O)Nc1ccc(NC(=O)c2cc3cc(NC(=O)CC(C)(C)C)ccc3n2Cc2ccccc2F)cc1 [Example 60] | 700
2 | CC(C)(C)CC(=O)Nc1ccc2c(c1)cc(C(=O)Nc1ccc(N)cc1)n2Cc1ccccc1F [Example 57, N-(4-Aminophenyl)-5-[(3,3-dimethylbutanoyl)amino]-1-(2-fluorobenzyl)-1H-indole-2-carboxamide hydrochloride] | 1500
3 | CC(C)(C)CC(=O)Nc1ccc2c(c1)cc(C(=O)Nc1ccc(NS(C)(=O)=O)cc1)n2Cc1ccccc1F [Example 58] | 1600
